Source: publication PMC10244169, “Psychedelics promote plasticity by directly binding to BDNF receptor TrkB” (Nature Neuroscience, 2023)

Columns and labels:
[1] = test system: dendritic arbor complexity of neuronal cultures; assay: Dendritogenesis (Sholl analysis) in neuronal cultures (WT and Y433F^+/−); format: cell-based, mouse; settings: for Sholl analysis, Mean at distance from soma: fig 6j
In short: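 Some cultures were pretreated 10 min with TrkB.FC (200 ng ml^−1) or M100907 (100 nM), which stayed in the medium alongside cumulative psychedelic doses. Sholl analysis counted dendritic intersections every 5 μm from the soma.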

[2] = test system: mice; assay: Head-twitch response; format: in vivo, mouse; design: key to Mean, figure 7c (head-twitch response) / Mean Diff., figure 7d, Vehicle:Saline vs. Vehicle:LSD / Mean Diff., figure 7d, Vehicle:Saline vs. M100907:Saline / Mean Diff., figure 7d, M100907:Saline vs. M100907:LSD / Mean, figure 7d (head-twitch response) / Mean Diff., figure 7c, WT:Saline vs. WT:LSD / Head-twitch response, Mean: head twitch counts (scored every 2 min over 30 min); settings: for Head-twitch response, Mean: ext fig 7d
Experimental: Immediately after the last injection, the animals were placed inside a transparent chamber and their activity video-recorded for 30 min. Similarly to previous studies, head twitches were scored as counts every 2 min by observers blinded to treatments and genotypes.

**Q.** Which results are given for `COc1cccc([C@H](O)C2CCN(CCc3ccc(F)cc3)CC2)c1OC` [M100907]?
**A.** effect of pretreatment on LSD effects on dendritogenesis ([1]; TrkB.FC 200 ng ml^−1 or M100907 100 nM): not M100907 prevented LSD effects on dendritogenesis; dendritic arbor complexity, Mean Diff. (Vehicle:vehicle vs. group) ([1]; fig 6i, Bonferroni's multiple comparisons test): -9.087; dendritic arbor complexity, group mean (Mean 2) ([1]; fig 6i, treatment:pretreatment groups, Vehicle:vehicle mean 69.72): 78.81; Sholl analysis, Mean at distance from soma ([1]; distance from soma 10 µm): 6.619; Sholl analysis, Mean at distance from soma ([1]; distance from soma 15 µm): 6.476; Sholl analysis, Mean at distance from soma ([1]; distance from soma 20 µm): 6.048; Sholl analysis, Mean at distance from soma ([1]; distance from soma 25 µm): 6.333; Sholl analysis, Mean at distance from soma ([1]; distance from soma 30 µm): 5.286; Sholl analysis, Mean at distance from soma ([1]; distance from soma 35 µm): 4.524; Sholl analysis, Mean at distance from soma ([1]; distance from soma 40 µm): 4.619; Sholl analysis, Mean at distance from soma ([1]; distance from soma 45 µm): 3.714; Sholl analysis, Mean at distance from soma ([1]; distance from soma 50 µm): 3.667; Sholl analysis, Mean at distance from soma ([1]; distance from soma 55 µm): 3.571; Sholl analysis, Mean at distance from soma ([1]; distance from soma 60 µm): 3.381; Sholl analysis, Mean at distance from soma ([1]; distance from soma 65 µm): 3.238; Sholl analysis, Mean at distance from soma ([1]; distance from soma 70 µm): 2.905; Sholl analysis, Mean at distance from soma ([1]; distance from soma 75 µm): 2.857; Sholl analysis, Mean at distance from soma ([1]; distance from soma 80 µm): 3.429; Sholl analysis, Mean at distance from soma ([1]; distance from soma 85 µm): 3.429; Sholl analysis, Mean at distance from soma ([1]; distance from soma 90 µm): 3.381; Sholl analysis, Mean at distance from soma ([1]; distance from soma 95 µm): 2.619; Sholl analysis, Mean at distance from soma ([1]; distance from soma 100 µm): 2.714; effect on LSD-induced head-twitch response ([2]; M100907 0.5 mg kg^−1, 30 min before LSD): blocked; Mean, figure 7d (head-twitch response) ([2]; M100907:Saline group): 0.2; Head-twitch response, Mean ([2]; Time (min) 2): 0.2; Head-twitch response, Mean ([2]; Time (min) 4): 0; Head-twitch response, Mean ([2]; Time (min) 6): 0; Head-twitch response, Mean ([2]; Time (min) 8): 0; Head-twitch response, Mean ([2]; Time (min) 10): 0; Head-twitch response, Mean ([2]; Time (min) 12): 0; Head-twitch response, Mean ([2]; Time (min) 14): 0; Head-twitch response, Mean ([2]; Time (min) 16): 0; Head-twitch response, Mean ([2]; Time (min) 18): 0; Head-twitch response, Mean ([2]; Time (min) 20): 0; Head-twitch response, Mean ([2]; Time (min) 22): 0; Head-twitch response, Mean ([2]; Time (min) 24): 0; Head-twitch response, Mean ([2]; Time (min) 26): 0; Head-twitch response, Mean ([2]; Time (min) 28): 0; Head-twitch response, Mean ([2]; Time (min) 30): 0; Mean Diff., figure 7d, Vehicle:Saline vs. M100907:Saline ([2]; vehicle minus M100907, Bonferroni's multiple comparisons test): 2.2
